Test results taken from publication PMC6152156 (Molecules : A Journal of Synthetic Chemistry and Natural …, 2017).
Read-outs that look alike come from different tables or passages of the source.

Key:
AChE [1] = target: T1, AChE (Rattus norvegicus, UniProt P37136); assay: AChE kinetic study (Lineweaver-Burk and Dixon plots); assay type: biochemical; conditions: for Ki: Dixon plot, inhibitor 0.1, 0.3, 1 μM, substrate 1.25-20 mM, n = 3; for type of inhibition of AChE: Lineweaver-Burk plot
T1 construct: AChE was derived from the SD rat brains by homogenizing the brain with 20-fold saline solution; from tissue; host or cells: SD rat brain homogenate (supernatant after 800 x g)
Description: (§1) To have an insight into how structure modification affected the inhibitory activities, molecular docking and kinetics studies were performed for DL0410, compounds 6-1 and 7-6. After the docking parameters were set, the crystal poses of donepezil and N-((1-benzylpiperidin-3-yl)methyl)-N-(2-methoxyethyl) naphthalene-2-sulfonamide were first re-docked into the binding site pocket of AChE and BuChE, respectively. Donepezil is a mixed-type inhibitor of AChE used in the palliative treatment of AD [25]. N-((1-benzylpiperidin-3-yl)methyl)-N-(2-methoxyethyl) naphthalene-2-sulfonamide is a potent, selective, and reversible human BuChE inhibitor, which can improve memory, cognitive functions, and learning abilities. The root mean square deviation (RMSD) values between the docking and initial poses were 0.872 and 1.253, respectively, which implied that the docking models built by CDOCKER could reproduce the crystal binding model and were suitable for the AChE and BuChE system. DL0410 and two highly inhibitory compounds (compounds 6-1 and 7-6) were docked to the active pockets of AChE and BuChE. For AChE, these three compounds could dock to TRP86 of CAS via π-Alkyl interaction or electrostatic attraction, near the bottom of the active site gorge, and TRP286 of PAS via π-π stacking interaction, near its entrance (Figure 4). The value of –CDOCKER INTERACTION ENERGY was followed by compound 6-1 > compound 7-6 > DL0410. The dibenzofuran of compound 6-1 formed stronger π-π stacking interaction with TYR341 and TRP286, and the carbonyl formed hydrogen bond with TYR72. In addition, hydrogen bond interaction of compound 7-6 made it high inhibition for AChE. […] There existed more hydrogen bonds for compound 7-6, and a highly electronegative fluorine atom caused its strong interaction with GLY116. Therefore, the fluorine atom substitution and the structure of dibenzofuran made compounds 6-1 and 7-6 different from DL0410. Compound 7-6 formed more hydrogen bonds with AChE and BuChE. The structure of dibenzofuran caused the extension direction of compound 6-1 to change, which was more conducive to forming electrostatic attractive interactions. In silico results were consistent with the kinetics studies of AChE and BuChE. […] The inhibition kinetic data were analyzed by Lineweaver-Burk and Dixon plots. The Lineweaver-Burk plot provides a useful means of distinguishing among competitive inhibition, non-competitive inhibition, and mixed inhibition, whereas the merit of the Dixon plot is that one can expediently determine Ki from the kinetic data. […] The results of the kinetics studies also validated that the three compounds were, indeed, capable of binding to CAS and PAS of AChE/BuChE. The PAS site could […] their catalytic efficiency, which led to high inhibitory effects.
(§2) Figure 6 The Lineweaver-Burk plots of DL0410, compound 6-1 and compound 7-6 on AChE inhibitory activity (A–C). The Lineweaver-Burk plots of DL0410, compound 6-1 and compound 7-6 on BuChE inhibitory activity (D–F). Kinetic analysis of AChE and BuChE was performed by using three effective concentrations of DL0410, compound 6-1 and compound 7-6 (0.1, 0.3, 1 μM for AChE, and 0.3, 1, 3 μM for BuChE) with the incubation of five different substrate concentrations (1.25, 2.5, 5, 10, 20 mM for AChE, and 2, 4, 8, 16, 32 mM for BuChE). […] (n = 3; a = mM^−1; b = min/ΔA).
(§3) Figure 7 Ki values were determined by Dixon plots. […] Figure D–F presented the Dixon plots of DL0410, compound 6-1 and compound 7-6 on BuChE inhibitory activity, respectively. […] (n = 3; b = min/ΔA).
(§4) It is important to determinate the type of inhibition in an effort to understand the mechanism of inhibition and the binding sites of the inhibitor sites. […]

BuChE [2] = target: T2, BuChE (Homo sapiens, UniProt P06276); assay: BuChE kinetic study (Lineweaver-Burk and Dixon plots); assay type: biochemical; conditions: for Ki: Dixon plot, inhibitor 0.3, 1, 3 μM, five substrate concentrations, n = 3; for type of inhibition of BuChE: Lineweaver-Burk plot
T2 construct: BuChE was obtained from human plasma (purchased from Beijing Red Cross Blood Center China); tissue Beijing Red Cross Blood Center China; host or cells: human plasma, diluted 200-fold with 0.05 M PBS
Description: as §1, §2, §3, §4

Aβ-treated mice = tested on: Aβ-treated mice; design: method as in PMID 27498773; conditions: Aβ-treated mice model; cited from earlier work
APPsw-SY5Y cells = conditions: Akt/JNK signaling pathway; cited from earlier work
APP/PS1 transgenic mice = tested on: APP/PS1 transgenic mice; design: method as in PMID 26476132; conditions: cited from earlier work
AChE [3] = target: T1, AChE; assay: In vitro AChE inhibitory assay (Ellman's method); assay type: biochemical
Description: The AChE inhibitory activity of DL0410 derivatives was assessed by determining the hydrolysis product of Acetylthiocholine iodide (ASCh) using the Ellman’s method. 5,5′-Dithiobis (2-nitrobenzoic acid) (DTNB), and the substrate ASCh were purchased from Sigma Aldrich. AChE was derived from the SD rat brains by homogenizing the brain with 20-fold saline solution, and then centrifuged at 800× g for 20 min at 4 °C. To acquire the inhibition of AChE activity, five serial dilutions of samples were measured. A Spectra Max M5 microplate reader (Molecular Devices, Sunnyvale, CA, USA) was utilized for the assay for AChE reaction system with 96-well plates in 0.05 M phosphate-buffered solution (PBS). The reaction system includes 10 μL sample, 20 μL AChE solution, 60 μL 3.75 mM ASCh, and 80 μL 0.25 mg/mL DTNB. It took 60 min at 37 °C for incubation, and the absorbance intensity of AChE reaction system was quantified at 412 nm.

BuChE [4] = target: T2, BuChE; assay: In vitro BuChE inhibitory assay (Ellman-type, human plasma); assay type: biochemical; conditions: BuChE from human plasma, BuSCh substrate, 60 min, 37 °C
Description: BuChE was obtained from human plasma (purchased from Beijing Red Cross Blood Center China). Before utilization, human plasma was diluted 200-fold with 0.05 M PBS. Five serial dilutions of samples are determined to obtain BuChE inhibitory activity. The BuChE reaction system is similar to the assay above, including 10 μL samples, 40 μL diluted plasma sample, 70 μL 7.5 mM S-butyrylthiocholine (BuSCh), and 80 μL 0.25 mg/mL DTNB. After incubation at 37 °C for 60 min, the absorbance intensity of the system was measured at wavelength 412 nm.

[5] = AChE from SD rat brain homogenate, ASCh substrate, 60 min, 37 °C, read-out: IC50(μM) AChE

T1 sequence (P37136 32-614): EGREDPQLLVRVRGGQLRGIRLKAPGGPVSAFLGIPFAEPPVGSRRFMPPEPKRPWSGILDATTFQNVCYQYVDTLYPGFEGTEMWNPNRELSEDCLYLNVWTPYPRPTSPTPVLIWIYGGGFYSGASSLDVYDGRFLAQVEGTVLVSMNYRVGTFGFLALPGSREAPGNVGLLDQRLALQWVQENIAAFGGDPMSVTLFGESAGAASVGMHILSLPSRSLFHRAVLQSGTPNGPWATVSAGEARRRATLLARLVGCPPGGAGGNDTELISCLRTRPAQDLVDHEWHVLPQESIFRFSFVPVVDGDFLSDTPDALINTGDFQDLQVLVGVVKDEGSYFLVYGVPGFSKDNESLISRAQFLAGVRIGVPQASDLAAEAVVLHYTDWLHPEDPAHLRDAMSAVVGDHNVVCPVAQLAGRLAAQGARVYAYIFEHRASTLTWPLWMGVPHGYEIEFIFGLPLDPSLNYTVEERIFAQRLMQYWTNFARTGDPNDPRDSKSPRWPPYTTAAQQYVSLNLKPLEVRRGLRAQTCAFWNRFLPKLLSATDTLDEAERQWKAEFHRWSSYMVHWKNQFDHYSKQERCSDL
T2 sequence (P06276 29-602): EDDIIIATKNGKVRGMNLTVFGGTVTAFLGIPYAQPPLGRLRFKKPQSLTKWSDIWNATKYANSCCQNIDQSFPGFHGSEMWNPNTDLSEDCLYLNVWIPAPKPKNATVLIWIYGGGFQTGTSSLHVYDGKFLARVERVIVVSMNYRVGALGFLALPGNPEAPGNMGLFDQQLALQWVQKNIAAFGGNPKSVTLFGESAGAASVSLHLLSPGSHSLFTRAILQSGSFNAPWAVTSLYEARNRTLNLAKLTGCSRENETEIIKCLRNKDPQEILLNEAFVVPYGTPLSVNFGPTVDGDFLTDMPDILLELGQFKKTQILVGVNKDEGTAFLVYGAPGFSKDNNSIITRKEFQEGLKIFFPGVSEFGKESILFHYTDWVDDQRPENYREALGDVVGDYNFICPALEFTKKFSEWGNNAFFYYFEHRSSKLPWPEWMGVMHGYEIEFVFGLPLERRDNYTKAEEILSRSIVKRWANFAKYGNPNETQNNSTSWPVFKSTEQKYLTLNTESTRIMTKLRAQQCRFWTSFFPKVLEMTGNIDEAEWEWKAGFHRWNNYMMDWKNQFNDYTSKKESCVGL

| SMILES | Ki (AChE [1]) [µM] | type of inhibition of AChE (AChE [1]) | Ki (BuChE [2]) [µM] | type of inhibition of BuChE (BuChE [2]) | IC50 (AChE [3]; [5]) [µM] | IC50 (BuChE [4]; read-out: IC50(μM) BuChE) [µM] | also measured |
| --- | --- | --- | --- | --- | --- | --- | --- |
| O=C(CCN1CCCCC1)c1ccc(-c2ccc(C(=O)CCN3CCCCC3)cc2)cc1 [Compound 1-1] | 1.65 ± 0.14 | mixed-type | 1.81 ± 0.08 | mixed-type |  |  | Aβ deposits in cerebral cortices (Aβ-treated mice): reduced Aβ deposits in cerebral cortices; neuronal protection (APPsw-SY5Y cells): exerted neuronal protection; learning and memory dysfunction (APP/PS1 transgenic mice): improved learning and memory dysfunction |
| O=C(CCN1CCCCC1)c1ccc([S+]([O-])c2ccc(C(=O)CCN3CCCCC3)cc2)cc1 [Compound 5-3] |  |  |  |  | 14.1 | > 200 |  |
| O=C(CCN1CCCCC1)c1ccc2oc3ccc(C(=O)CCN4CCCCC4)cc3c2c1 [Compound 6-1] | 0.42 ± 0.04 | mixed-type | 0.74 ± 0.16 | mixed-type | 0.06 | 0.61 |  |
| O=C(CCN1CCCCC1)c1ccc2sc3ccc(C(=O)CCN4CCCCC4)cc3c2c1 [Compound 6-2] |  |  |  |  | 2.03 | 1.71 |  |
| C=C(CN1CCCCC1)C(=O)c1ccc(-c2ccc(C(=O)C(=C)CN3CCCCC3)cc2)cc1 [Compound 7-2] |  |  |  |  | 17.1 | 1.55 |  |
| CCN(C)C(=O)Oc1ccc(-c2ccc(OC(=O)N(C)CC)cc2)cc1 [Compound 7-3] |  |  |  |  |  |  | IC50 (AChE [3]): 34.1 µM; IC50 (BuChE [4]; IC50(μM) BuChE): 0.06 µM |
| O=C(COCCN1CCCCC1)c1ccc(-c2ccc(C(=O)OCCN3CCCCC3)cc2)cc1 [Compound 7-4] |  |  |  |  | 18.5 | > 200 |  |
| CCN(C)C(=O)Oc1ccc(-c2ccc(C(=O)CCN3CCCCC3)cc2)cc1 [Compound 7-5] |  |  |  |  |  |  | IC50 (AChE [3]): 3.35 µM; IC50 (BuChE [4]; IC50(μM) BuChE): 0.2 µM |
| O=C(CCN1CCCCC1)c1ccc(-c2ccc(C(=O)CCN3CCCCC3)cc2F)cc1 [Compound 7-6] | 0.55 ± 0.2 | mixed-type | 1.63 ± 0.18 | mixed-type | 0.03 | 0.44 |  |
| O=C(CCN1CCCCC1)c1ccc2c(c1)c1cc(C(=O)CCN3CCCCC3)ccc1n2C(=O)CCN1CCCCC1 [Compound 7-7] |  |  |  |  | 1.42 | 4.79 |  |
